Experiments:
[1] = tested on: human monocytes; assay: Cytokine treatment of monocytes, expression of VTCN1, PD-L1, CD80 by flow cytometry; assay type: cell-based; conditions: 24, 48, or 73 hours
Protocol: VTCN1 is expressed in monocytes and macrophages in a tumor microenviroment, the expression induced by cytokines in tumor microenviroment. VTCN1 positive macrophages inhibit T cell activation. Monocytes from healthy donors were treated with IFNγ and IL-6 to assess VTCN1 expression. Monocytes were enriched from fresh PBMC from healthy donor using a monocyte enrichment kit from Stemcell Technologies, and the purity of the obtained monocytes is greater than 95%. Monocytes were cultured in 24 well plate with different concentration of INFγ or LI-6 for 24, 48, or 73 hours, expression of VTCN1, PD-L1, and CD80 was assessed by flow cytometry. […] CD80 was expressed at low level in monocytes, and is not very responsive to cytokine treatment.

[2] = tested on: 4T1 tumors; assay: 4T1 mouse triple negative breast cancer model in Balb/C mice; assay type: in vivo
Protocol: 6-8 week-old Balb/C mice were injected with 0.1 million of 4T1 cells in the mammary fat pad. On day 5, mice were randomized to 4 treatment groups, PBS, 6D9 (10 mg/kg), Gemcitabine (75 mg/kg), and 6D9 (10 mg/kg) plus gemcitabine (75 mg/kg). All treatments were by intraperitoneal injection and mice received a total of 5 treatments on days 5, 8, 12, 14, and 16.
The tumors and lymph nodes were harvested from these mice, and cells were dissociated and subjected to immune cell profiling by flow cytometry analysis.

Row | Compound | VTCN1 and PD-L1 expression in monocytes [1] | 4T1 tumor growth ([2]; 6D9 10 mg/kg, gemcitabine 75 mg/kg, i.p., days 5, 8, 12, 14, 16) | tumor-free mice (complete response; CR) at end of study on day 65 ([2]; mouse, in vivo)
1 | IL6: cytokine added to human monocyte cultures | VTCN1 and PD-L1 expression was induced | – | –
2 | Nc1ccn([C@@H]2O[C@H](CO)[C@@H](O)C2(F)F)c(=O)n1 [Gemcitabine, gemcitabine] | – | totally inhibited tumor growth at the early stage of the study with tumor regrowth after 30 days | none of the mice in the gemcitabine alone group were tumor-free

Reference: US12427163B2, “Anti-VTCN1 antibodies and antibody drug conjugates” (Bluefin BioMedicine, Inc., priority 2017, dated 2025)
